27 compounds from patent publication US11161839B2, “2-quinolone derived inhibitors of BCL6” (Cancer Research Technology Limited, priority 2017, dated 2021) can be followed below.

The target in the experiment is human BCL6 BTB domain (Trx-6xHis-BCL6) (Homo sapiens (Human), UniProt P41182). The experiment is described as follows: HTRF in vitro assay (BCL6 BTB domain / BCOR-AF633 peptide). Particulars: for IC50: read-out: HTRF pIC50 (converted). Type of experiment: binding. A general note: TR-FRET usually uses a lanthanide donor and a delayed reading to cut background.
Setting [1] is: further generated data (Table 1b), 1 nM Trx-6xHis-BCL6, 0.5 nM anti-6xHis-Terbium cryptate.
Setting [2] is: initially generated data (Table 1a), 10 nM Trx-6xHis-BCL6, 1 nM anti-6xHis-Terbium cryptate.

Read-outs that look alike come from different tables or passages of the source.

Procedure: The % inhibition at each concentration was calculated by normalising FRET ratio to the appropriate high (DMSO with all reagents) and low (DMSO without BCL6) controls.

On to `CCNC(=O)C(C)(C)Nc1cc(=O)n(C)c2ccc(Nc3ccnc(Cl)c3C#N)cc12` [Example 3h, 2-((6-((2-Chloro-3-cyanopyridin-4-yl)amino)-1-methyl-2-oxo-1,2-dihydroquinolin-4-yl)amino)-N-ethyl-2-methylpropanamide], for which the “HTRF pIC50” value reads like this: under setting [1], 6.41; under setting [2], 6.40.
With `Cn1c(=O)cc(NC(C)(C)c2ncc(C3CC3)cn2)c2cc(Nc3cc(C(=O)O)nc(Cl)c3C#N)ccc21` [Example 9a, 6-chloro-5-cyano-4-((4-((2-(5-cyclopropylpyrimidin-2-yl)propan-2-yl)amino)-1-methyl-2-oxo-1,2-dihydroquinolin-6-yl)amino)picolinic acid], under setting [1], the “HTRF pIC50” value was found to be 7.74.
On to `CC(Nc1cc(=O)n(C)c2ncc(Nc3nc(N4CCC(F)(F)CC4)ncc3Cl)cc12)c1ncccn1` (stereo not drawn) [Example 17b, 6-((5-chloro-2-(4,4-difluoropiperidin-1-yl)pyrimidin-4-yl)amino)-1-methyl-4-((1-(pyrimidin-2-yl)ethyl)amino)-4,/- naphthyridin-2(1H)-one], for which, under setting [1], the “HTRF pIC50” value turned out to be 6.11.
With `C[C@H](CO)Nc1cc(=O)n(C)c2ccc(Nc3ccnc(Cl)c3C#N)cc12` [Example 3j, (R)-2-chloro-4-((4-((1-hydroxypropan-2-yl)amino)-1-methyl-2-oxo-1,2-dihydroquinolin-6-yl)amino)nicotinonitrile], the “HTRF pIC50” value is listed as 6.14 under setting [1] and 6.05 under setting [2].
Take `C[C@@H](Nc1cc(=O)n(C)c2ccc(Nc3ccnc(Cl)c3C#N)cc12)C(=O)NCCO` [Example 3b, (R)-2-((6-((2-chloro-3-cyanopyridin-4-yl)amino)-1-methyl-2-oxo-1,2-dihydroquinolin-4-yl)amino)-N-(2-hydroxyethyl)propanamide]: the “HTRF pIC50” value runs as follows: under setting [1], 6.57; under setting [2], 6.73.
On to `COC1CCC1Nc1cc(=O)n(C)c2ccc(Nc3ccnc(Cl)c3C#N)cc12` (racemic) [Example 22b, rac-2-chloro-4-((4-(((1R,2S)-2-methoxycyclobutyl)amino)-1-methyl-2-oxo-1,2-dihydroquinolin-6-yl)amino)nicotinonitrile or rac-2-chloro-4-((4-(((1R,2R)-2-methoxycyclobutyl)amino)-1-methyl-2-oxo-1,2-dihydroquinolin-6-yl)amino)nicotinonitrile], for which the IC50 under setting [1] is 575 nM.
For the compound `CC(Nc1cc(=O)n(C)c2ccc(Nc3ccnc(Cl)c3C#N)cc12)c1nc[nH]n1` (stereo not drawn) [Example 1e, 2-chloro-4-[[1-methyl-2-oxo-4-[1-(1H-1,2,4-triazol-3-yl)ethylamino]-6-quinolyl]amino]pyridine-3-carbonitrile], the “HTRF pIC50” value by setting is: under setting [1], 6.08; under setting [2], 6.50.
For `Cn1c(=O)cc(N[C@H]2C[C@H](O)C2)c2cc(Nc3ccnc(Cl)c3C#N)ccc21` [Example 1f, trans-2-chloro-4-[[4-[(3-hydroxycyclobutyl)amino]-1-methyl-2-oxo-6-quinolyl]amino]pyridine-3-carbonitrile], the “HTRF pIC50” value was 6.27 under setting [1] and 6.37 under setting [2].
Take `Cn1c(=O)cc(NC(C)(C)c2ncccn2)c2cc(Nc3cc(C(=O)O)nc(Cl)c3C#N)ccc21` [Example 9f, 6-chloro-5-cyano-4-((1-methyl-2-oxo-4-((2-(pyrimidin-2-yl)propan-2-yl)amino)-1,2-dihydroquinolin-6-yl)amino)picolinic acid]: the “HTRF pIC50” value under setting [1] came to 7.65.
Take `CC[C@@H]1C[C@H]1Nc1cc(=O)n(C)c2ccc(Nc3cc(C(=O)O)nc(Cl)c3C#N)cc12` (racemic) [Example 9i, rac-6-chloro-5-cyano-4-((4-(((1R,2R)-2-ethylcyclopropyl)amino)-1-methyl-2-oxo-1,2-dihydroquinolin-6-yl)amino)picolinic acid]: under setting [1], the IC50 was 245 nM.
Take `COc1cc(Nc2ccc3c(c2)c(N[C@H](CO)C2CC2)cc(=O)n3C)c(Cl)cn1` [Example 15c, (S)-6-((5-chloro-2-methoxypyridin-4-yl)amino)4-4((1-cyclopropyl-2-hydroxyethyl)amino)-1-methylquinoline-2(1H)-one]: the IC50 under setting [1] was 575 nM.
With `CC(Nc1cc(=O)n(C)c2ccc(Nc3cc(C(=O)O)nc(Cl)c3C#N)cc12)C1CC1` (stereo not drawn) [Example 2a, 6-Chloro-5-cyano-4-[[4-(1-cyclopropylethylamino)-1-methyl-2-oxo-6-quinolyl]amino]pyridine-2-carboxylic acid], the “HTRF pIC50” value under setting [1] stood at 6.85 and the “HTRF pIC50” value under setting [2] is given as 6.78.
With `CCNc1cc(=O)n(CCOCCOC)c2ccc(Nc3ccnc(Cl)c3C#N)cc12` [Example 1o, 2-chloro-4-[[4-(ethylamino)-1-[2-(2-methoxyethoxy)ethyl]-2-oxo-6-quinolyl]amino]pyridine-3-carbonitrile], the IC50 under setting [1] was 708 nM.
For `CCNC(=O)C(C)Nc1cc(=O)n(C)c2ccc(Nc3ccnc(Cl)c3C#N)cc12` (racemic) [Example 3k, rac-2-((6-((2-Chloro-3-cyanopyridin-4-yl)amino)-1-methyl-2-oxo-1,2-dihydroquinolin-4-yl)amino)-N-ethylpropanamide], the IC50 under setting [2] is 676 nM.
On to `Cc1nc(N2CCC(C(=O)N(C)C)CC2)nc(Nc2ccc3c(c2)c(NC(C)(C)c2ncccn2)cc(=O)n3C)c1Cl` [Example 16c, 1-(5-chloro-4-methyl-6-((1-methyl-2-oxo-4((2-(pyrimidin-2-yl)propan-2-yl)amino)-1,2-dihydroquinolin-6-yl)amino)pyrimidin-2-yl)-N,N-dimethylpiperidine-4-carboxamide], for which, under setting [1], the “HTRF pIC50” value stood at 6.36.
Consider `COC1CCC(NC(=O)[C@@H](C)Nc2cc(=O)n(C)c3ccc(Nc4ccnc(Cl)c4C#N)cc23)CC1` (stereo partly drawn) [Example 3i, (R)-2-((6-((2-Chloro-3-cyanopyridin-4-yl)amino)-1-methyl-2-oxo-1,2-dihydroquinolin-4-yl)amino)-N-(4-methoxycyclohexyl)propanamide], for which the “HTRF pIC50” value is 6.42 under setting [1] and 6.36 under setting [2].
As to `CC(Nc1cc(=O)n(C)c2ccc(Nc3ncnc(Cl)c3Cl)cc12)c1ncccn1` (stereo not drawn) [Example 19e, 6-((5,6-dichloropyrimidin-4-yl)amino)-1-methyl-4-((1-(pyrimidin-2-yl)ethyl)amino)quinolin-2(1H)-one], the “HTRF pIC50” value under setting [1] is listed as 6.05.
Take `Cn1c(=O)cc(NC2CC2)c2cc(Nc3cc(C(=O)O)nc(Cl)c3C#N)ccc21` [Example 2b, 6-chloro-5-cyano-4-[[4-(cyclopropylamino)-1-methyl-2-oxo-6-quinolyl]amino]pyridine-2-carboxylic acid]: the “HTRF pIC50” value under setting [1] came to 6.55 and the “HTRF pIC50” value under setting [2] amounted to 6.41.
For the compound `Cn1cc(CNC(=O)C(C)(C)Nc2cc(=O)n(C)c3ccc(Nc4ccnc(Cl)c4C#N)cc23)cn1` [Example 11c, 2-((6--((2-chloro-3-cyanopyridin-4-yl)amino)-1-methyl-2-oxo-1,2-dihydroquinolin-4-yl)amino)-2-methyl-N-((1-methyl-1H-pyrazol-4-yl)methyl)propanamide], the “HTRF pIC50” value under setting [1] was 6.42.
On to `C[C@@H](Nc1cc(=O)n(C)c2ccc(Nc3nc(N4CCC4)ncc3Cl)cc12)C1CC1` [Example 26a, (R)-6-((2-(azetidin-1-yl)-5-chloropyrimidin-4-yl)amino)-4-((1-cyclopropylethyl)amino)-1-methylquinolin-2(1H)-one: formic acid (1:1)], for which, under setting [1], the “HTRF pIC50” value was found to be 6.25.
On to `CC(Nc1cc(=O)n(C)c2ccc(Nc3ncnc(Cl)c3C#N)cc12)c1ncccn1` (stereo not drawn) [Example 10t, 4-chloro-6-((1-methyl-2-oxo-4-((1-(pyrimidin-2-yl)ethyl)amino)-1,2-dihydroquinolin-6-yl)amino)pyrimidine-5-carbonitrile], for which, under setting [1], the “HTRF pIC50” value turned out to be 6.22.
As for `COc1ncc(Cl)c(Nc2ccc3c(c2)c(N[C@H](CO)C2CC2)cc(=O)n3C)n1` [Example 11f, (S)-6-((5-chloro-2-methoxypyrimidin-4-yl)amino)-4-((1-cyclopropyl-2-hydroxyethyl)amino)-1-methylquinolin-2(1H)-one], under setting [1], the “HTRF pIC50” value amounted to 6.13.
Turning to `CCNc1cc(=O)n(CCN2C(=O)CCC2=O)c2ccc(Nc3ccnc(Cl)c3C#N)cc12` [Example 1r, 2-chloro-4-[[1-[2-(2,5-dioxopyrrolidin-1-yl)ethyl]-4-(ethylamino)-2-oxo-6-quinolyl]amino]pyridine-3-carbonitrile], the “HTRF pIC50” value runs as follows: under setting [1], 6.25; under setting [2], 6.05.
Turning to `CCC(C)(C)Nc1cc(=O)n(C)c2ccc(Nc3cc(C(=O)O)nc(Cl)c3C#N)cc12` [Example 9o, 6-chloro-5-cyano-4-((1-methyl-2-oxo-4-(tert-pentylamino)-1,2-dihydroquinolin-6-yl)amino)picolinic acid], under setting [1], the “HTRF pIC50” value was determined as 6.66.
In the case of `CC(CO)Nc1nc(=O)n(C)c2ccc(Nc3ccnc(Cl)c3C#N)cc12` (stereo not drawn) [Example 1l, 2-chloro-4-[[4-[(2-hydroxy-1-methyl-ethyl)amino]-1-methyl-2-oxo-quinazolin-6-yl]amino]pyridine-3-carbonitrile], the “HTRF pIC50” value came out at 5.98 under setting [1] and 6.18 under setting [2].
The matching figures for `CC(CCO)Nc1nc(=O)n(C)c2ccc(Nc3ccnc(Cl)c3C#N)cc12` (stereo not drawn) [Example 1k, 2-chloro-4-[[4-[(3-hydroxy-1-methyl-propyl)amino]-1-methyl-2-oxo-quinazolin-6-yl]amino]pyridine-3-carbonitrile]: 5.95 and 6.19.
In the case of `C[C@@H](CCO)Nc1cc(=O)n(C)c2ccc(Nc3ccnc(Cl)c3C#N)cc12` [Example 3n, (S)-2-Chloro-4-((4-((4-hydroxybutan-2-yl)amino)-1-methyl-2-oxo-1,2-dihydroquinolin-6-yl)amino)nicotinonitrile], the “HTRF pIC50” value amounted to 6.01 under setting [1] and 6.31 under setting [2].
